Series [1] deals with T1, Caspase-3/Caspase-7 (Homo sapiens) (UniProt P42574+P55210). In words: Activation of caspase-3/7 activity in human 518A2 cells at 1 uM preincubated for 6 hrs followed by caspase-3/7 fluorogenic substrate addition and measured after 60 mins by fluorescence assay. Format: cell-based. The settings on record: filed as activator, time 7.0 hrs.
Series [2] can be described thus: Hydrolytic stability of compound in DMSO-d6/D2O measured after 7 days by 1H-NMR analysis. Type of series: physicochemical. The settings on record: 168 h; time 7 day.
Series [3] has as its system HCT-116. Kind of series: Cytotoxicity against p53-deficient human HCT-116 cells assessed as reduction in cell viability measured after 72 hrs by MTT assay. Format: functional, cell-based. The note with it: HCT-116, 72 h.
Another series relates to HeLa. In words: Cytotoxicity against human HeLa cells assessed as reduction in cell viability measured after 72 hrs by MTT assay. Format: functional, cell-based.
Series [4] has as its system 518A2. Kind of series: Cytotoxicity against human 518A2 cells assessed as reduction in cell viability measured after 72 hrs by MTT assay. Format: functional, cell-based. The note with it: 518A2, 72 h.
A short description of series [5]: Effect on angiogenic activity in 24 hrs post-fertilized fil1/EGFP transgenic zebrafish embryo assessed as subintestinal vessel area at 100 nM measured after 48 hrs by fluorescence microscopy (reference value: 100%). Format: toxicity, Danio rerio. The note with it: 0.1 µM.
Series [6] concerns HCT-116. In words: Cytotoxicity against human HCT-116 cells assessed as reduction in cell viability measured after 72 hrs by MTT assay. The settings on record: HCT-116, 72 h. Type of series: functional, cell-based.
Series [7] in a line: Cytotoxicity against human EA.hy 926 cells assessed as reduction in cell viability measured after 72 hrs by MTT assay. Type of series: toxicity, cell-based.
In series [8] the test system is 518A2. In words: Cell cycle arrest in human […] cells assessed as increase in accumulation at G2/M phase at 25 nM measured after 6 to 24 hrs by propidium iodide staining based FACS analysis. The settings on record: time 6-24 hrs. Format: functional.
The nature of series [9]: Cytotoxicity against human U-87 cells assessed as reduction in cell viability measured after 72 hrs by MTT assay. The settings on record: U-87 MG. Format: functional, cell-based, U-87MG ATCC.
For series [10], the target named is T2, Tubulin (Homo sapiens) (UniProt P68371+Q9H4B7+P0DPH7+P68366+Q13509+Q71U36+P04350+Q3ZCM7+P07437+P68363+Q9BQE3+Q6PEY2+Q13885+Q9BVA1+Q9BUF5). Kind of series: Induction of microtubule fragmentation in human 518A2 cells assessed as appearance of area with transverse arcs at 25 nM measured after 24 hrs by immunofluorescence assay. Format: cell-based.
For series [11], the target named is T1, Caspase-3/Caspase-7 (Homo sapiens). Kind of series: Activation of caspase-3/7 activity in human 518A2 cells at 25 nM preincubated for 24 hrs followed by caspase-3/7 fluorogenic substrate addition and measured after 60 mins by fluorescence assay. Type of series: cell-based. The note with it: filed as activator, time 25.0 hrs.
Series [12] concerns the target Transcriptional activator Myb (Homo sapiens, UniProt P10242). Kind of series: Inhibition of c-Myb (unknown origin) expressed in HEK293T cells measured after 16 hrs by steady-glo luciferase reporter gene assay. Format: cell-based.
The nature of series [13]: Effect on angiogenic activity in human EA.hy 926 cells assessed as reduction in vessel like 2D structure at 25 nM measured after 5 hrs by light microscopy. Format: toxicity, cell-based. The settings on record: ea.hy 926, 5 h, 0.025 µM.
The target in series [14] is T2, Tubulin (Homo sapiens). In words: Induction of microtubule fragmentation in human 518A2 cells assessed as appearance of area with dorsal stress fibre at 25 nM measured after 24 hrs by immunofluorescence assay. Format: cell-based.
Another series relates to HT-29. In words: Cytotoxicity against human HT-29 cells assessed as reduction in cell viability measured after 72 hrs by MTT assay. Type of series: functional, cell-based. The settings on record: HT-29, 72 h.
Series [15] concerns the target T2, Tubulin (Homo sapiens). In words: Induction of microtubule fragmentation in human 518A2 cells at 25 nM measured after 24 hrs by immunofluorescence assay. Type of series: cell-based.
In the next series the test system is MCF7. In words: Cytotoxicity against human MCF7 cells assessed as reduction in cell viability measured after 72 hrs by MTT assay. Type of series: functional, cell-based. The note with it: MCF7, 72 h.
Series [16] is described as follows: Stability of compound in human 518A2 cell lysate measured after 72 hrs by RP-HPLC analysis. The settings on record: 518a2, 72 h. Type of series: ADME, subcellular.
A short description of series [17]: Cytotoxicity against HDFa cells assessed as reduction in cell viability at 0.0005 to 100 uM measured after 72 hrs by MTT assay. Type of series: toxicity, cell-based. The note with it: human, dose 0.0005-100 µM.
In series [18] the test system is KB-V1. Kind of series: Cytotoxicity against human multidrug-resistant KB-V1 cells assessed as reduction in cell viability measured after 72 hrs in presence of verapamil by MTT assay. Format: functional, cell-based. The settings on record: KB-V1, 72 h.
The nature of series [19]: Stability of compound in human 518A2 cell lysate at 100 uM measured after 24 hrs by UV-absorption spectra analysis. Type of series: ADME, subcellular. The settings on record: 518a2, 24 h.
Series [20] deals with KB-V1. In words: Cytotoxicity against human multidrug-resistant KB-V1 cells assessed as reduction in cell viability measured after 72 hrs by MTT assay. Type of series: functional, cell-based. The settings on record: KB-V1, 72 h.
Series [21] relates to 518A2. Kind of series: Cell cycle arrest in human […] cells assessed as increase in accumulation at sub-G1 phase at 25 nM measured after 6 to 24 hrs by propidium iodide staining based FACS analysis. Format: functional. The settings on record: time 6-24 hrs.
The nature of series [22]: Drug uptake in cytoplasm of human 518A2 cells at 25 uM measured within 15 mins by confocal microscopy. Type of series: ADME, subcellular. The settings on record: 518a2, 0.25 h.
The species entered for a further series is Sus scrofa. Kind of series: Inhibition of porcine brain tubulin polymerization at 5 uM measured at 10 mins interval for 100 mins by turbidimetric assay. Type of series: tissue-based.

Calls of active or inactive are those of the source. The calls are words filed in the database; no cut-off is given here.

T1 sequence (P42574 whole entry, looked up): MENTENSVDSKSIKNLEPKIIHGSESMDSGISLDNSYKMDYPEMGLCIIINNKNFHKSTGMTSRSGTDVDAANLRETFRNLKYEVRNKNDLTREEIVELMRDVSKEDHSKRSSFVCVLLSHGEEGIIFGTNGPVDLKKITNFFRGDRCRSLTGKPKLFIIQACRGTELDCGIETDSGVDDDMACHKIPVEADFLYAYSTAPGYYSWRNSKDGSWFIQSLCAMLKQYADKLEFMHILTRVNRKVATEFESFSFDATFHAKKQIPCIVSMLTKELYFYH
T1 sequence (P55210 whole entry, looked up): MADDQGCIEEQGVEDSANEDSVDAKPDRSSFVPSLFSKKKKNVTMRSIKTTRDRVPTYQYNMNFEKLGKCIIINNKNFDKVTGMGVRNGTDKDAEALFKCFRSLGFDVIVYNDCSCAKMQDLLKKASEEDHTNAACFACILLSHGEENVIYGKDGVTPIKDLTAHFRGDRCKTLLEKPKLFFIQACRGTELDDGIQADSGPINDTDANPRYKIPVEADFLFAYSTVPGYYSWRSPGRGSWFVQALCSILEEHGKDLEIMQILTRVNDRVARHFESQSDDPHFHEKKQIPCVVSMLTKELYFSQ
Sequence of Transcriptional activator Myb (P10242 whole entry): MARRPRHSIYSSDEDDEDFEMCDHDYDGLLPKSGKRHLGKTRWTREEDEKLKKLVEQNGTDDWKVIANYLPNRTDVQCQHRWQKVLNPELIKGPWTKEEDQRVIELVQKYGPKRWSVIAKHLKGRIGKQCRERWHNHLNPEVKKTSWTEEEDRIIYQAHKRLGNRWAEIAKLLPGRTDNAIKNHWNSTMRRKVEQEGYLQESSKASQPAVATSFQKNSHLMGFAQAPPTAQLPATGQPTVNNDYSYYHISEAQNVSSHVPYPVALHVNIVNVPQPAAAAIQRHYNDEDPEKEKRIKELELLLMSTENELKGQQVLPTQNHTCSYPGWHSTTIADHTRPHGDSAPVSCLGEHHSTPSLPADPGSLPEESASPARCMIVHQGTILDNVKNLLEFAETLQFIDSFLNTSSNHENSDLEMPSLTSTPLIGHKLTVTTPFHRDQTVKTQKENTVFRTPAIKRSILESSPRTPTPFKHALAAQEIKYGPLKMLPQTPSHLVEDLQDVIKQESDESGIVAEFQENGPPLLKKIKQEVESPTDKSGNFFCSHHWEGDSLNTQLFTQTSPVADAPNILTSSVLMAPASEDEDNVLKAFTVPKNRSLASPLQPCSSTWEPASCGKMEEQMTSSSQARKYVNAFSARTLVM

As to `CN[C@@H]1C[C@H]2O[C@@](C)([C@@H]1OC)n1c3ccccc3c3c4c(c5c6ccccc6n2c5c31)C(=O)NC4`, the result in series [1] was Active.
On to `C#CCOc1c(OC)cc(C2C(C#N)=C(N)Oc3c2ccc2ccccc32)cc1OC` (stereo not drawn), for which the Stability entry in series [2], in series [16] and in series [19] was “Stable” throughout. In addition, the IC50 came to 19.9 nM with HCT-116 [3]; 24 nM with HeLa; 20.6 nM with 518A2 [4]; 75.2 nM in the series on HCT-116 [6]; 5.2 nM in series [9]; 11 nM in series [12]. Besides, the IC50 in the series with HT-29 worked out at 36.9 nM; in the series with MCF7 it was 2.6 nM; in the series on KB-V1 [18] it was 10.6 nM; with KB-V1 [20], 60.6 nM. Besides, the Activity in series [5] is reported as 34.5%; in series [13], “Toxic”; in series [17] it was “Toxic”. Besides, the IC50 at 72 h in series [7] was 17.1 nM. Moreover, the result (in the series on 518A2 [8]; at Tubulin (Homo sapiens) [10]; in series [11]; at Tubulin (Homo sapiens) [14]; on Tubulin (Homo sapiens) [15]; in the series with 518A2 [21]) was Active. For the same molecule, the Drug uptake entry in series [22] is given as “Active”. Moreover, the inhibition entry in the series filed under Sus scrofa is “Active”.
As to `COc1cc(C2C(C#N)=C(N)Oc3c2ccc2ccccc32)cc(OC)c1OC` (stereo not drawn), the Stability result in [2] is reported as “Stable”. For the same molecule, the IC50 was found to be 27.6 nM in the series on HCT-116 [3]; 11.3 nM with HeLa; 28.8 nM in the series with 518A2 [4]; 22.2 nM in the series with HCT-116 [6]; 5.2 nM in series [9]; 9.1 nM in [12]. For the same molecule, the IC50 with HT-29 is 324 nM; in the series on MCF7, 34.1 nM; in the series with KB-V1 [18], 8.8 nM; in the series with KB-V1 [20], 26.4 nM. The Activity in series [5] is given as 81.4%; in series [13], “Toxic”; in [17] it was “Toxic”. For the same molecule, in [7], the IC50 at 72 h was determined as 19.9 nM. For the same molecule, the result (with 518A2 [8]; on Tubulin (Homo sapiens) [10]; in series [11]; at Tubulin (Homo sapiens) [14]; at Tubulin (Homo sapiens) [15]; with 518A2 [21]) was Active. In addition, in the series filed under Sus scrofa, the inhibition entry is “Active”.

(Values after ChEMBL document CHEMBL5126678, “A New Naphthopyran Derivative Combines c-Myb Inhibition, Microtubule-Targeting Effects, and Antiangiogenic Properties” (ACS Med Chem Lett, 2022).)
